Data from publication PMC8799717, “Pharmacological targeting PIKfyve and tubulin as an effective treatment strategy for double-hit lymphoma” (Cell Death Discovery, 2022).

Columns and labels:
Assay in all cases: biochemical
Set-up in all cases: KINOMEscan active-site-directed competition binding panel, 468 kinases, percent of DMSO control at 1 uM
Conditions in all cases: KINOMEscan binding, percent of DMSO control; read-out: Ctrl%
[1] = target: ANKK1 (Homo sapiens, UniProt Q8NFD2)
[2] = target: T1, ARK5 (Homo sapiens, UniProt O60285)
T1 construct: gene NUAK1

[3] = target: BUB1 (Homo sapiens, UniProt O43683)
[4] = target: CAMKK1 (Homo sapiens, UniProt Q8N5S9)
[5] = target: CDK8 (Homo sapiens, UniProt P49336)
[6] = target: DYRK1A (Homo sapiens, UniProt Q13627)
[7] = target: EGFR(L858R,T790M) (Homo sapiens, UniProt P00533, L858R/T790M)
[8] = target: ERBB3 (Homo sapiens, UniProt P21860)
[9] = target: GRK2 (Homo sapiens, UniProt P25098)
[10] = target: INSR (Homo sapiens, UniProt P06213)
[11] = target: T2, LKB1 (Homo sapiens, UniProt Q15831)
T2 construct: gene STK11

[12] = target: T3, MRCKB (Homo sapiens, UniProt Q9Y5S2)
T3 construct: gene CDC42BPB

[13] = target: PIK3CA(E542K) (Homo sapiens, UniProt P42336, E542K)
[14] = target: PIK3CA(H1047Y) (Homo sapiens, UniProt P42336, H1047Y)
[15] = target: T4, QSK (Homo sapiens, UniProt Q9Y2K2)
T4 construct: gene SIK3

[16] = target: RET(M918T) (Homo sapiens, UniProt P07949, M918T)
[17] = target: RIOK1 (Homo sapiens, UniProt Q9BRS2)
[18] = target: RIPK4 (Homo sapiens, UniProt P57078)
[19] = target: SBK1 (Homo sapiens, UniProt Q52WX2)
[20] = target: SRPK2 (Homo sapiens, UniProt P78362)
[21] = target: STK39 (Homo sapiens, UniProt Q9UEW8)
[22] = target: TGFBR2 (Homo sapiens, UniProt P37173)
[23] = target: TIE1 (Homo sapiens, UniProt P35590)
[24] = target: WEE2 (Homo sapiens, UniProt P0C1S8)

TGFBR2, sequence (P37173 whole entry): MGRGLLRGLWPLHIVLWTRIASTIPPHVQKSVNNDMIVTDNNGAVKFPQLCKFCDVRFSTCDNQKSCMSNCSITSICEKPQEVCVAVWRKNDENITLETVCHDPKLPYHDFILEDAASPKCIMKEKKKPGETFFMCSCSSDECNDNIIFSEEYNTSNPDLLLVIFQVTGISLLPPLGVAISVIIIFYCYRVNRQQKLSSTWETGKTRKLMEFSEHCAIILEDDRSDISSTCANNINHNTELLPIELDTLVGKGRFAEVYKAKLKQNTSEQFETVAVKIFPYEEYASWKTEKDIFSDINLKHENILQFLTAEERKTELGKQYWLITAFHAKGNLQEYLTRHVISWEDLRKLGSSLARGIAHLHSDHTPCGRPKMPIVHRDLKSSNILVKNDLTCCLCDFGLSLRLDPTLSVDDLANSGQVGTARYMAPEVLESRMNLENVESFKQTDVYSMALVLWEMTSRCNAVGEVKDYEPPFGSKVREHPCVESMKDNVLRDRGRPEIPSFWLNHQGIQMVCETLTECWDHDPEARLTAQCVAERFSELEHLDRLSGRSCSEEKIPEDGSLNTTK
EGFR(L858R,T790M), sequence (P00533 whole entry T790M/L858R): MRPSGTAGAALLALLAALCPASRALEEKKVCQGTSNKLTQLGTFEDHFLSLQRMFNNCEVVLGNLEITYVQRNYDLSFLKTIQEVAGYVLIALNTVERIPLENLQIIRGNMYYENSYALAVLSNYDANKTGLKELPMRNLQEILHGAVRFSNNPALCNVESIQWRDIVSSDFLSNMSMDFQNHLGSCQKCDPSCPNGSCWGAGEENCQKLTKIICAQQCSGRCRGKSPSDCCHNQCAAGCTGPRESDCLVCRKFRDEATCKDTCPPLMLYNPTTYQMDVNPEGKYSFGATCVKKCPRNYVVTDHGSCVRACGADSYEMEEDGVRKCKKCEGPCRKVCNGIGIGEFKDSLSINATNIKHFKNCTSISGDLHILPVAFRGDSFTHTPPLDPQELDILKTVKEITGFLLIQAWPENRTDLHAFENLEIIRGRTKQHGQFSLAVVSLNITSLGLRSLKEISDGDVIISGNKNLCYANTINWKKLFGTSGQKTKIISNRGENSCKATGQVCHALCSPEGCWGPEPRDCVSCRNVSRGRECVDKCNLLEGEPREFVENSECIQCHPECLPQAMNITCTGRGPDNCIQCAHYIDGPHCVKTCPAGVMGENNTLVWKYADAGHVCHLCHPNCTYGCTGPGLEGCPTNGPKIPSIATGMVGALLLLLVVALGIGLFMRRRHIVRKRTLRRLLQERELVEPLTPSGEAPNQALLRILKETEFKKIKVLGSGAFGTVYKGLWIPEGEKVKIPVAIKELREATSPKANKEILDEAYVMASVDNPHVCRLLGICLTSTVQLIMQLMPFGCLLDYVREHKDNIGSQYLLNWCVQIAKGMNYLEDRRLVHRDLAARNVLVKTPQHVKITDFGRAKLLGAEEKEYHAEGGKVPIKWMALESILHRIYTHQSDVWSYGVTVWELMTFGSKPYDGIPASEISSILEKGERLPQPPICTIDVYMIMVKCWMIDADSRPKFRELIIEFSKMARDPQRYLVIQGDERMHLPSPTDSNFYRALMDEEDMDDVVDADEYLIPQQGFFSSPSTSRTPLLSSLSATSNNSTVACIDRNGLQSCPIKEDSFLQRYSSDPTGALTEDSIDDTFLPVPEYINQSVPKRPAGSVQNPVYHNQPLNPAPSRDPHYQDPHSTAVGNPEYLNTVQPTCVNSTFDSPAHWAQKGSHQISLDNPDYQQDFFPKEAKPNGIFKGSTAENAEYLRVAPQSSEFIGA
SRPK2, sequence (P78362 whole entry): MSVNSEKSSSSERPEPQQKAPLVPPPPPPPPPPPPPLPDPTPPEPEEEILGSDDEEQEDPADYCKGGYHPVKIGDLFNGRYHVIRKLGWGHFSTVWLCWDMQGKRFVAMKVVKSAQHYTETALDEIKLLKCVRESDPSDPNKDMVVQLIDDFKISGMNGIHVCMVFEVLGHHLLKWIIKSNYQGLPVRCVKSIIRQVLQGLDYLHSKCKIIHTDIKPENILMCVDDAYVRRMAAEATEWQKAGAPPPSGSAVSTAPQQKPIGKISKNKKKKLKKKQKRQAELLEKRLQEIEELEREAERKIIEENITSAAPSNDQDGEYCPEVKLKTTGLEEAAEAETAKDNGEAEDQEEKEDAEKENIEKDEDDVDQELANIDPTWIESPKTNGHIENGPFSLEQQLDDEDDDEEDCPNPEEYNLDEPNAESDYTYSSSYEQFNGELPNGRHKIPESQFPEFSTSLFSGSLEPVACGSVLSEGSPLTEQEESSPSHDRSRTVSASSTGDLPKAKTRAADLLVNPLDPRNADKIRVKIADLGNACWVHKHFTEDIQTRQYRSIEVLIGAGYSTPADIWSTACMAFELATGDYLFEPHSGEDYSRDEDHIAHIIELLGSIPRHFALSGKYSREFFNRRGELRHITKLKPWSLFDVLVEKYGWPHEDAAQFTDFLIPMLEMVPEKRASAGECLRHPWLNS
RIOK1, sequence (Q9BRS2 whole entry): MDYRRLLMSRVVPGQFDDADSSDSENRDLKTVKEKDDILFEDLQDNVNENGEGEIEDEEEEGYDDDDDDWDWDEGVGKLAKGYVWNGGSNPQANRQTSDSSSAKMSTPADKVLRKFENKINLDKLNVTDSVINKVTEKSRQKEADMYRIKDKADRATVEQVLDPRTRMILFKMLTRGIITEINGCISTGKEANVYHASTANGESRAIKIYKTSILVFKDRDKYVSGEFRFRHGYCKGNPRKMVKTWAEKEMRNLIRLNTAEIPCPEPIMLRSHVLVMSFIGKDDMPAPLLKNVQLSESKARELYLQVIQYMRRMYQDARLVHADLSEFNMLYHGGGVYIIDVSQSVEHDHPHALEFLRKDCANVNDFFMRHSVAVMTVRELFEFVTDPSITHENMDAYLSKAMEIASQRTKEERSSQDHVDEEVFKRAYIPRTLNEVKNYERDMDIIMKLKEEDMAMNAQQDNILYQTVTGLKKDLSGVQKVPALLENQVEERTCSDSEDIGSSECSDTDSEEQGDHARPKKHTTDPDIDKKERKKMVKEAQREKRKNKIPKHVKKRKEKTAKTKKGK
ERBB3, sequence (P21860 whole entry): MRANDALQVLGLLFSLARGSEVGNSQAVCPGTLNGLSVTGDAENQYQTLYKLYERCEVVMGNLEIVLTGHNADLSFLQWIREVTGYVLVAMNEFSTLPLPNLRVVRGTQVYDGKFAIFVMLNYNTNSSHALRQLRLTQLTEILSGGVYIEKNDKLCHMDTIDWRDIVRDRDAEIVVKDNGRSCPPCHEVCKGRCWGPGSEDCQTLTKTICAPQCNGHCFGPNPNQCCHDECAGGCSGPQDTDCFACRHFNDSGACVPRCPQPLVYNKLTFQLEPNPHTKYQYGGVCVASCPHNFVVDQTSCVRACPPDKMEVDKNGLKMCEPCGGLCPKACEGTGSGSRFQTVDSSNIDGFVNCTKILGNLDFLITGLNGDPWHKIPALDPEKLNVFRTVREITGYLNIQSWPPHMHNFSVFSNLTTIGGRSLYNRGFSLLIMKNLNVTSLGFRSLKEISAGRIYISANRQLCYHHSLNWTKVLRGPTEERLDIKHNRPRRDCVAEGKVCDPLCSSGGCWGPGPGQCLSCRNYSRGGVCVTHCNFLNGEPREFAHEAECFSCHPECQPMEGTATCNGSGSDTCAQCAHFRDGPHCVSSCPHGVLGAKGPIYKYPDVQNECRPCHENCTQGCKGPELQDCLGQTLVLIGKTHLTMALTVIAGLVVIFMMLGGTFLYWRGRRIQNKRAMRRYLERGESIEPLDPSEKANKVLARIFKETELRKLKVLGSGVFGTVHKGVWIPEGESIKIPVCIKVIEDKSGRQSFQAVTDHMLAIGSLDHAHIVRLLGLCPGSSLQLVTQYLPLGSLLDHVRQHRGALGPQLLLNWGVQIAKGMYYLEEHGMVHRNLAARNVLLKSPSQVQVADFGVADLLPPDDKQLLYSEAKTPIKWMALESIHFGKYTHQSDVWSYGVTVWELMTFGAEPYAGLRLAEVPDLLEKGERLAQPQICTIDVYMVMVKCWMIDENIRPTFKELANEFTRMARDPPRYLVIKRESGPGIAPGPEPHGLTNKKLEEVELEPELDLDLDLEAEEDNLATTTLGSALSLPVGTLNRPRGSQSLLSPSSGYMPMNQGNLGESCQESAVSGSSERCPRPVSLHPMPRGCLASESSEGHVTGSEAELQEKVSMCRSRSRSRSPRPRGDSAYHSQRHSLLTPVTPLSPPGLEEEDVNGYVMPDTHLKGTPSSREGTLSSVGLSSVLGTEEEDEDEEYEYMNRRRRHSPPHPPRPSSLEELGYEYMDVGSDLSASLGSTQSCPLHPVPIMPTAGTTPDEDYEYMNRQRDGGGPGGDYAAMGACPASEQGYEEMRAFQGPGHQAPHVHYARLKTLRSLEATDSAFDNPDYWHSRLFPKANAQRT
CAMKK1, sequence (Q8N5S9 whole entry): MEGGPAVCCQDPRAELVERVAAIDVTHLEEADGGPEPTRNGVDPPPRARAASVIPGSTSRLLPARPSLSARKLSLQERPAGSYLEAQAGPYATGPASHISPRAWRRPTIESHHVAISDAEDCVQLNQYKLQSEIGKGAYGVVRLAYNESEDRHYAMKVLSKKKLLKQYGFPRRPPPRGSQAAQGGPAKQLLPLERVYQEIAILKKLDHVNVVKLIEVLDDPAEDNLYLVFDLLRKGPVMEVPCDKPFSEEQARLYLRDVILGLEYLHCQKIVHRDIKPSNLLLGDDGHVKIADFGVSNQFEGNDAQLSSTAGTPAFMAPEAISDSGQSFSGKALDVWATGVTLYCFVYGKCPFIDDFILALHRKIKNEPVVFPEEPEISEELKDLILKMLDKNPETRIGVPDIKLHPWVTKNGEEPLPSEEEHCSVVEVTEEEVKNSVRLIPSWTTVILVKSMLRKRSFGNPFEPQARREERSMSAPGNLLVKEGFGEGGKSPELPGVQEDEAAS

Cc1ccc(NC(=O)c2cccc(C(F)(F)F)c2)cc1Nc1cc(-c2cccnc2)nc2[nH]ccc12 [HZX-02-059]
remaining binding at 1 µM [1]: 99% | remaining binding at 1 µM [2]: 100% | remaining binding at 1 µM [3]: 100% | remaining binding at 1 µM [4]: 97% | remaining binding at 1 µM [5]: 91% | remaining binding at 1 µM [6]: 85% | remaining binding at 1 µM [7]: 79% | remaining binding at 1 µM [8]: 100% | remaining binding at 1 µM [9]: 100% | remaining binding at 1 µM [10]: 100% | remaining binding at 1 µM [11]: 72% | remaining binding at 1 µM [12]: 100% | remaining binding at 1 µM [13]: 56% | remaining binding at 1 µM [14]: 88% | remaining binding at 1 µM [15]: 66% | remaining binding at 1 µM [16]: 99% | remaining binding at 1 µM [17]: 98% | remaining binding at 1 µM [18]: 75% | remaining binding at 1 µM [19]: 88% | remaining binding at 1 µM [20]: 83% | remaining binding at 1 µM [21]: 94% | remaining binding at 1 µM [22]: 90% | remaining binding at 1 µM [23]: 100% | remaining binding at 1 µM [24]: 100%
